One experiment deals with 5-HT3. In words: Bezold-Jarisch Reflex (5-HT-induced bradycardia in anesthetized mice). The class given is in vivo. Particulars: i.p., 30 min before 5-HT (0.25 mg/kg i.v.), >50 percent reduction in bradycardic response vs vehicle. The method, then:
(§1) 5-HT4 agonist activity was determined in the in vitro rat tunica muscularis mucosae (TMM) assay. (Baxter et al., Naunyn Schmied Arch. Pharmacol, 1991, 343, 439). The 5-HT4 agonist or antagonist activity and/or 5-HT3 antagonist activity of the compounds of the invention herein, can be determined by the assays as described herein, without undue experimention.
The compound to be evaluated was administered i.p. (mg/kg) to a group of 3 mice.
This method has been described by Saxena, P. R. and Lawang, A., Arch. Int. Pharmacodyn., 277:235-252, 1985.

In the next experiment the target is T1, 5-HT3 receptor (Rattus norvegicus, UniProt P35563).
T1 construct: Brain cortices were obtained from male rats and a membrane fraction prepared by standard techniques; from tissue; host or cells: rat brain cortex membranes (male rats)
T1 sequence (P35563 24-483): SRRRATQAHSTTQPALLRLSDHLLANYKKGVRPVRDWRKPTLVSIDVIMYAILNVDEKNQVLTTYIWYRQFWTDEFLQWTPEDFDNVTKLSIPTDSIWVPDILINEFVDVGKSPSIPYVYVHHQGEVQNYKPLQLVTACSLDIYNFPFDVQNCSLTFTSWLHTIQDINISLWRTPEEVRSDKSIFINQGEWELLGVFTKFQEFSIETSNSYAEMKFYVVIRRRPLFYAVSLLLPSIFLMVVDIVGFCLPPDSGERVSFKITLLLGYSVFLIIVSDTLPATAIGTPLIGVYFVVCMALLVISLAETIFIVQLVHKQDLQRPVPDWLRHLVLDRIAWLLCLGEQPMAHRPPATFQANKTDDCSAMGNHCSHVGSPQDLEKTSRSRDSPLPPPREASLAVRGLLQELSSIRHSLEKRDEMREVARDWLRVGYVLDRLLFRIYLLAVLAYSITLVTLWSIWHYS
In words: Serotonin (5-HT3) radioligand receptor binding, [3H]-GR65630, rat brain cortex membranes. The procedure:
as §1
GR65630 binds to the 5-HT3 receptor. Brain cortices were obtained from male rats and a membrane fraction prepared by standard techniques. 0.04 mg of membrane prep was incubated with 0.2 nM […] for 60 minutes at 22° C. […] Kilpatrick G. J., Jones B. J. and Tyers M. B. Identification and distribution of 5-HT3 receptors in rat brain using radioligand binding assay. Nature, 330: 746-748, 1987.

The target in the next experiment is T2, 5-HT4 receptor (Rattus norvegicus, UniProt Q62758).
T2 construct: One 2 cm segment of intrathoracic esophagus proximal to the diaphragm was removed from male rats; from tissue; host or cells: rat intrathoracic esophagus, inner tunica muscularis mucosae (male rats)
T2 sequence (Q62758 whole entry): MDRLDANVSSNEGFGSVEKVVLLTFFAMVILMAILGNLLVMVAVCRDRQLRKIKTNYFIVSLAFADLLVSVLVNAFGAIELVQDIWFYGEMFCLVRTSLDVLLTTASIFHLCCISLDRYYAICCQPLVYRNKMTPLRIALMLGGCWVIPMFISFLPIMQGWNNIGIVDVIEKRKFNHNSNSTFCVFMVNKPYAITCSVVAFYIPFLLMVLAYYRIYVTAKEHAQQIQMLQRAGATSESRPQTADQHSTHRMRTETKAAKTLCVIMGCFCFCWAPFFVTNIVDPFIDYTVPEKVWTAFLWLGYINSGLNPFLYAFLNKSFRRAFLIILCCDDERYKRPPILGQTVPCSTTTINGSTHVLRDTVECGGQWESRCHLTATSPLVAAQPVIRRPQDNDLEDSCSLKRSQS
In words: cell-based. Particulars: carbachol (3 μM) contracted rat tunica muscularis mucosae, 37° C., cumulative addition, tissues from 5 rats; read-out: 5-HT4 Agonism (Rat TMM) In Vitro Assay: EC50 Values. The procedure: as §1
Agonist activity was determined utilizing relaxation of carbachol-contracted rat tunica muscularis mucosae. One 2 cm segment of intrathoracic esophagus proximal to the diaphragm was removed from male rats, weighing approximately 300 gm, and the outer muscle layers removed. The inner tunica muscularis mucosa was mounted under 0.2-0.3 g of tension in a tissue bath containing oxygenated Tyrode's solution at 37° C. […] Following a 30 min equilibrium period, tissues were isometrically contracted with carbachol (3 μM) to obtain a tonic contraction. A stable plateau was obtained within 20 min when test compound was added cumulatively to relax the muscle strip. EC50 values were obtained for each agonist in tissues from 5 rats.

A value given as a limit tells only on which side of the number the result lay.

Take `O=c1[nH]c2ccccc2n1CCCN1CCC(n2c(=O)[nH]c3cc(Cl)ccc32)CC1` [domperidone]: in the experiment on 5-HT3, the “Minimum Effective Dose (MED)” value was greater than 10 mg/kg.
The term Ki denotes a dissociation constant, usually derived from enzyme kinetics or from competition with a known ligand. Low values mean tighter binding, high ones weaker binding. Consider `CC(C)n1c(=O)n(C(=O)NC2C3CC4CC2CN(C4)C3)c2cc(Cl)ccc21` (stereo not drawn) [Example 22B, N-(1-azatricyclo[3.3.1.1^3,7]decan-4-yl)-6-chloro-2,3-dihydro-3-(1-methylethyl)-2-oxo-1H-benzimidazole-1-carboxamide], for which the Ki on 5-HT3 receptor was 0.0049 µM. This counts as single-digit nanomolar.
Turning to `CC(C)n1c(=O)n(C(=O)NCCC23CCCN2CCC3)c2ccccc21` [Example 13, N-[2-(hexahydro-7aH-pyrrolizin-7a-yl)ethyl]-2,3-dihydro-3-(1-methylethyl)-2-oxo-1H-benzimidazole-1-carboxamide], the “Minimum Effective Dose (MED)” value in the experiment with 5-HT3 stood at 10 mg/kg.
Same read-out and setting: under `CCN(CC)CCNC(=O)c1cc(Cl)c(N)cc1OC` [metoclopramide] stands 5 mg/kg.
The term EC50 denotes the concentration giving half of the maximal effect. `CC(C)n1c(=O)n(C(=O)NC[C@@H]2CCN3CCC[C@@H]23)c2ccccc21` (relative stereo) [Example 23, cis-N-[(hexahydro-1H-pyrrolizin-1-yl)methyl]-2,3-dihydro-3-(1-methylethyl)-2-oxo-1H-benzimidazole-1-carboxamide]: on 5-HT3 receptor, the Ki amounted to 0.075 µM. Moreover, the EC50 at 5-HT4 receptor turned out to be 0.374 µM. Also, the “Minimum Effective Dose (MED)” value in the experiment with 5-HT3 stood at 1 mg/kg.
As to `CCC(CO)NC(=O)C1C=C2c3cccc4c3c(cn4C)CC2N(C)C1` (stereo not drawn) [methylsergide], the “Minimum Effective Dose (MED)” value in the experiment on 5-HT3 was greater than 10 mg/kg.
`CC(C)n1c(=O)n(C(=O)NC2C3CC4CC2CN(C4)C3)c2ccc(Cl)cc21` (stereo not drawn) [Example 17, N-(1-azatricyclo[3.3.1.1^3,7]decan-4-yl)-5-chloro-2,3-dihydro-3-(1-methylethyl)-2-oxo-1H-benzimidazole-1-carboxamide]: at 5-HT3 receptor (1 h, read-out: Effect of Compounds on [H]-GR65630 Bound (0.2 nM), % @ 10,000 nM), the inhibition at 10 µM amounted to 41%.
For the molecule `CN1C2CCCC1CC(NC(=O)c1nn(C)c3ccccc13)C2` (stereo not drawn) [BRL-43694], the “Minimum Effective Dose (MED)” value with 5-HT3 is on record as 0.05 mg/kg.
On the same count and under the same terms, under `CN1[C@@H]2C[C@@H](OC(=O)[C@H](CO)c3ccccc3)C[C@H]1[C@@H]1O[C@@H]12` [scopolamine] stands 2.5 mg/kg.
In the case of `Cc1nc[nH]c1CCC(=O)c1cn(C)c2ccccc12` [GR65630], the “% Specific Binding” value on 5-HT3 receptor (radioligand, non-specific binding in the presence of 1 uM ICS 205-930) came out at 70%.

For the origin of these results see patent publication US5534521A, “Benzimidazole compounds” (G. D. Searle & Co., priority 1994, dated 1996).
